{"source": "paper PMC10788856", "about": "“Mimicking Nonribosomal Peptides from the Marine Actinomycete Streptomyces sp. H-KF8 Leads to Antimicrobial Peptides” (ACS Infectious Diseases, 2023)", "key": {"[1]": {"test_system": "E. coli CCUG31246", "assay": "DiSC(3)5 microscopy (membrane potential)", "format": "cell-based", "details": "0.5 μM DiSC(3)5", "text": "Propidium iodide is a large organic molecule that is not suitable to detect smaller ion-conducting pores or channels induced by antimicrobials. To assess whether the peptides may form smaller membrane pores sufficient for the passage of ions, we tested their effects on the membrane potential using the fluorescence probe DiSC(3)5.[40] This dye accumulates in the cell membrane in a membrane potential-dependent manner and disassociates, when the membrane potential is dissipated. […] This effect can be clearly seen with polymyxin B (Figure 7b).\nThe membrane potential of E. coli CCUG31246 and E. coli MC4100 carrying pABCON2-fhuA ΔC/Δ4L was measured by DiSC(3)5 microscopy according to ref. ([40]) with minor modifications. Cells were grown in 1:10 BHI containing 50 μg/mL bovine serum albumin to an OD600 of 0.3 prior to antibiotic treatment with the respective peptides for 10 and 60 min. Samples were stained with 0.5 μM DiSC(3)5 for 15 min (added 5 min before adding antibiotics for the 10 min time point and after 45 min of antibiotic treatment for the 60 min time point). Stained samples were spotted on 1.2% agarose, sealed with a gene frame, and imaged immediately. Microscopy was performed as described above, and fluorescence intensity was analyzed with the same parameters used for propidium iodide detection."}, "[2]": {"test_system": "C. albicans", "assay": "microbe, parasite or virus in culture", "format": "cell-based", "details": "16 h"}, "[3]": {"test_system": "E. coli CCUG31246", "assay": "Propidium iodide staining (pore formation)", "format": "cell-based", "experimental": "Due to the overall similarity of the peptides’ cytological profiles to that of polymyxin B, we further tested their ability to form pores in the cell membrane. To this end, we used the fluorescence probe propidium iodide, which cannot cross intact membranes but can enter cells through pores of sufficient size.[39]\nPore formation was investigated with the fluorescence dye propidium iodide as described previously[56] with minor modifications. E. coli CCUG31246 was grown to an OD600 of 0.3 and subsequently treated with different peptides for 10 and 60 min. Samples were stained with 1 μg/mL propidium iodide for 15 min (added 5 min before adding antibiotics for the 10 min time point and after 45 min of antibiotic treatment for the 60 min time point), spotted on 1.2% agarose films, and sealed with a gene frame. Microscopy was performed as described above. The fluorescence intensity of the different samples was analyzed with MicrobeJ. For detection of bacterial cells from phase contrast images, parameters were set to an area of 1.5-max, length of 1-max, width 0.5–2.5, curvature 0–1.5, and an angularity of 0–0.5. Fluorescence intensity parameters were set to an area of 1.5-max, length of 1-max, and width 0.5–2.5. All other parameters remained at default settings."}, "[4]": {"details": "37 °C, RP-HPLC", "experimental": "Peptide stability in serum is another limiting factor for AMPs as novel antibiotics.[30]\nPeptide serum stability was performed according to D́Aloisio et al.[30] and Chen et al.[51] with some minor modifications. The serum stability was investigated using human serum (Sigma-Aldrich) from Human male AB plasma, USA origin, sterile-filtered. 250 μL serum was temperature-equilibrated at 37 °C and 100 μL aqueous peptide solution (L2: 1 mM; L3: 0.9 mM; L3-K: 0.7 mM; and C3: 0.5 mM) was added. RP-HPLC was measured at time intervals of 0, 0.5, 1, 4, and 24 h. For RP-HPLC samples, 30 μL of peptide solution was taken, 7 μL of Fmoc-Gly solution (4 mM) was added, and 2 μL of the sample was injected to HPLC. […]\nFigure S 133. RP-HPLC chromatogram (gradient from 10 to 90% acetonitrile in water over 10 min at 2\nml/min, detection at 254 nm) of peptides tested for serum stability. A) peptide L2 B) peptide L3. C)\n(1 picture or pasted object on this page, not shown here)"}}, "note": "Numbered stars: 1 amine (or outer) side, 2 acyl side, 3 side chain; on linkers, the order of the positions; unused ones are H or OH. Bridge positions count the residues as written; N and C are the ends. Square brackets hold non-standard residues; d marks the D form. Peptide text beside a SMILES is read from it. Tyr(3-NO2) = N[C@@H](Cc1ccc(O)c([N+](=O)[O-])c1)C(=O)O; Glutaryl = O=C(CCCC(=O)[*:2])[*:1]; Orn = NCCC[C@H](N)C(=O)O", "data": [{"compound": "CC(C)[C@H]1NC(=O)[C@H](CCCN)NC(=O)[C@H]([C@@H](C)O)NC(=O)[C@H](CCCN)NC(=O)[C@H](Cc2c[nH]c3ccccc23)NC(=O)[C@@H](C)NC(=O)[C@@H](C(C)C)NC(=O)[C@@H](C)NC(=O)[C@H](Cc2c[nH]c3ccccc23)NC(=O)CCCC(=O)NCCCC[C@@H](C(N)=O)NC(=O)[C@H](Cc2ccc(O)c([N+](=O)[O-])c2)NC1=O", "note": "[C3] (W[dA][dV][dA]W[Orn]T[Orn][dV][Tyr(3-NO2)]K-NH2; linker N-11 via Glutaryl)", "values": [{"measurement": "membrane potential, DiSC(3)5 fluorescence, 10 min", "setting": "[1]; 1× MIC of peptide, polymyxin B 10 μg/mL, 10 min", "value": "no effect on the membrane potential"}, {"measurement": "membrane potential, DiSC(3)5 fluorescence, 60 min", "setting": "[1]; 1× MIC, 60 min", "value": "partial depolarization"}, {"measurement": "C. albicans MIC", "setting": "[2]", "value": ">512", "unit": "µg/mL"}, {"measurement": "cells remaining unstained by propidium iodide after 60 min", "setting": "[3]; 1× MIC (64 μg/mL L3, 128 μg/mL L3-K, 512 μg/mL C3), 60 min, 1 μg/mL propidium iodide", "value": 64, "unit": "%"}, {"measurement": "propidium iodide uptake", "setting": "[3]; 1× MIC of peptide, polymyxin B 10 μg/mL, 10 and 60 min", "value": "only a small subpopulation of cells"}, {"measurement": "stability in human serum", "setting": "[4]; human serum from male AB plasma, 250 μL serum + 100 μL aqueous peptide solution (L2 1 mM; L3 0.9 mM; L3-K 0.7 mM; C3 0.5 mM), 0, 0.5, 1, 4, 24 h, Fmoc-Gly internal standard", "value": "stable after 24 h"}, {"measurement": "additional peaks / shoulder in chromatogram after 24 h in serum, total volume percentage", "setting": "[4]; human serum, 24 h, detection at 254 nm", "value": "does not show any additional signal"}]}]}
